# From patent publication US11718645B2, “Macrocyclic therapeutic agents, methods of manufacture, and methods of treatment” (University of Florida Research Foundation, Incorporated, priority 2014, dated 2023)
# Tests used:
# [1] = Cellular stability in HCT116 cell lysate; assay type: in vitro ADME, human; conditions: HCT116 protein lysate 0.7 mg/mL, up to 24 h, FIG. 2D
# Method: Aliquots of HCT116 cell lysates were diluted with 25 mM Tris-HCl buffer, pH 8.0, to give a final reaction volume of 100 μL and protein concentration of 0.7 mg/mL. Cell lysate solutions were incubated with 10 μL of apratoxin A, BK, BL, BM, or BN (25 μg/mL) for 0.25 min to 24 h (nine time points). Remaining apratoxin A, BK, BL, BM, or BN were extracted from the reaction solution at the end of the incubation periods with ethyl acetate using the same procedure as described for the plasma stability assay.
# (§1) Analysis of apratoxin A, S4 (BK), S7 (BL), S8 (BM) and S9 (BN) was done by using HPLC-MS [column, Onyx Monolithic C18 (3.0×100 mm), Phenomenex (Torrance, Calif.); solvent, water (solvent A) acetonitrile (solvent B); flow rate, 0.5 ml/min; detection by electrospray ionization-MS in positive ion mode (MRM scan)]. A stepwise gradient elution was used starting at 60% B and 40% A, then increasing to 80% B at 5 min and maintained at this condition for 5 min. Parameters were optimized before analysis by using direct syringe infusion. The retention times (tR, min; MRM ion pair) of the analytes and internal standard are as follows: harmine (2.2; 213.1→169.9), apratoxin A (4.7; 841.4→445.2), apratoxin S4 (BK) (4.1; 828.5→432.2), apratoxin S7 (BL) (4.05; 814.5→418.2), apratoxin S8 (BM) (5.2; 842.5→446.2), apratoxin S9 (BN) (4.9; 828.5→432.2). Compound-dependent parameters used were as follows: apratoxin A, declustering potential (DP) 51, entrance potential (EP) 12, collision energy (CE) 45, collision cell exit potential (CXP) 6, collision cell entrance potential (CEP) 32; and harmine, DP 56.0, EP 4.5, CE 44.0, CXP 5, CEP 16.0. Source gas parameters used were as follows: curtain gas, 15.0; collision gas low, ionspray voltage 5500; temperature, 600.0; ion source gas 150.0; ion source gas 2 60.0.
# (§2) Calibration curves for apratoxin A, S4 (BK), S7 (BL), S8 (BM) and S9 (BN) in the presence of mouse serum, HCT116 cell lysates, and aqueous solutions were generated by least-square linear regression analysis of the analyte peak area and internal standard peak area ratio against the nominal concentration of the standard solutions. A linear regression analysis was performed, and the concentration of remaining apratoxins at each time point was determined through interpolation for plasma, cellular, and aqueous stability experiments. The amount of remaining apratoxins with microsome incubation was determined from the peak area ratio of apratoxins at tx (3 min to 3 h) and t0. All calculations were done by using Analyst 1.4.2 (Applied Biosystems) Quantitate Mode.
# [2] = Microsomal stability; assay type: in vitro ADME, mouse
# Method: HPLC-MS was done on a 3200 QTRAP (Applied Biosystems) equipped with a Shimadzu (Kyoto, Japan) UFLC System. Mouse serum and harmine were purchased from Sigma-Aldrich. Pooled CD1 mouse liver (female) microsomes were purchased from XenoTech, LCC (Lenexa, Kans.) with protein concentrations of 0.5 mg/ml. HCT116 cell lysates were prepared with PhosphoSafe lysis buffer (Novagen). Protein concentration was determined by using the BCA Assay. Analysis was carried out similarly as previously described [Liu, Y.; Salvador, L. A.; Byeon, S.; Ying, Y.; Kwan, J. C.; Law, B. K.; Hong, J.; Luesch. H. J. Pharmacol. Exp. Ther. 2010, 335, 351-361].
# The stability of apratoxin A, S4 (BK), S7 (BL), S8 (BM) and S9 (BN) in the presence of mouse microsomes was determined by using an adaptation of a published procedure [Ackley, D. C.; Rockich, K. T.; Baker, T. R. Optimization in Drug Discovery: In Vitro Methods (Series: Methods in Pharmacology and Toxicology) (eds Yan Z, Caldwell J W) 2004, pp 151-162, Springer, New Jersey]. In brief, microsomes were added to prewarmed phosphate buffer (100 mM, pH 7.4) at 37° C. Apratoxin A, BK, BL, BM, or BN (3 μL) were added to the microsomal preparation followed by NADPH cofactor solution (1.3 mM NADP, 3.3 mM glucose 6-phosphate, 0.4 U/mL glucose-6-phosphate dehydrogenase, 3.3 mM MgCl2). The reaction was allowed to proceed for 3 min to 3 h (7 time points) at 37° C. (thermomixer, 1050 rpm). The reaction was quenched by addition of ethyl acetate and subsequently spiked with harmine. The zero time point was defined by denaturing the microsomes with ethyl acetate before the addition of apratoxins. Incubation of apratoxins with microsomes alone was also performed following the same procedure to determine NADPH-dependent metabolism. The final concentration of the incubation mixture contained 0.5 mg/ml protein concentration and 1 μM apratoxins.
# as §1, §2
# [3] = test system: HCT116 cells; experiment: Cell viability assay (MTT); assay type: cell-based, human; conditions: determined after 48 h (n = 4)
# Method: (§3) Human colon adenocarcinoma HCT116 cells were purchased from ATCC (Manassas, Va.) and cultured in Dulbecco's modified Eagle's medium (Invitrogen, Carlsbad, Calif.) supplemented with 10% fetal bovine serum (HyClone, Logan, Utah) at 37° C. humidified air and 5% CO2.
# HCT116 cells were seeded at a density of 1×10^4 cells per well in 96-well plates. 24 h later the cells were treated with various concentrations of apratoxins or solvent control. After 48 h of incubation, cell viability was detected using MTT according to the manufacturer's instructions (Promega, Madison, Wis.).
# [4] = test system: HCT116 xenograft; conditions: previous efficacious dose 0.25 mg/kg; cited from earlier work
# [5] = Plasma stability in mouse serum; assay type: in vitro ADME; conditions: up to 24 h, FIG. 2C
# Method: In vitro plasma stability of apratoxin A, S4 (BK), S7 (BL), S8 (BM) and S9 (BN) was done by using a modification of a published method [Chen, X.; Gardner, E. R.; Figg, W. D. J. Chromatogr. B Analyt. Technol. Biomed. Life Sci. 2008, 86, 153-158]. Ten microliters of apratoxin A, BK, BL, BM, or BN (25 μg/mL) were added to 100 μL of mouse serum, and the solution was vortex-mixed for 15 s and incubated for 0.25 min to 24 h (11 time points). At the end of each incubation period, 400 μL of ethyl acetate was added to each tube, followed by 200 μL of harmine to quench the reaction and to extract the remaining apratoxin A or S4 (BK), S7 (BL), S8 (BM) and S9 (BN). Samples were further incubated in a thermomixer at 27° C. (750 rpm, 5 min) and later centrifuged for 5 min at 1643 g. The ethyl acetate layer was collected and evaporated to dryness under nitrogen. Samples were reconstituted in 50 μL of acetonitrile. A volume of 10 μL of the reconstituted solution was injected into the HPLC-MS system.
# as §1, with “Compound-dependent parameters used were as follows: apratoxin A, declustering potential (DP) 51, entrance potential (EP) 12, collision energy (CE) 45, collision cell exit potential (CXP) 6, collision cell entrance potential (CEP) 32; and harmine, DP 56.0, EP 4.5, CE 44.0, CXP 5, CEP 16.0. Source gas parameters used were as follows: curtain gas, 15.0; collision gas low, ionspray voltage 5500; temperature, 600.0; ion source gas 150.0; ion source gas 2 60.0.” left out
# as §2
# [6] = test system: VEGF-A secretion; experiment: Measurement of VEGF-A production (alphaLISA) in HCT116 culture supernatants; assay type: cell-based, human; conditions: determined after 12 h (n = 3)
# Method: as §3
# HCT116 cells (1×10^4 cells per well) were seeded in 96-well plates and one day later treated with various concentrations of apratoxins or solvent control. After 12 h of incubation, culture supernatants were collected for detection of VEGF-A by using an alphaLISA kit (PerkinElmer, Waltham, Mass.) following the manufacturer's instructions. Briefly, acceptor bead and anti-VEGF antibody were incubated first with the supernatants for 60 min, donor beads were added later and incubated for another 30 min and then VEGF-A levels detected using Envision (PerkinElmer).
structure (smiles),measurement,setting,value
"CC[C@H](C)[C@H]1C(=O)N2CCC[C@H]2C(=O)O[C@H](C(C)(C)C)C[C@@H](C)C[C@H](O)[C@H](C)C2=N[C@@H](CCC(=O)N[C@@H](Cc3ccc(OC)cc3)C(=O)N(C)[C@@H](C)C(=O)N1C)CS2 [apratoxin S4 (BK), Apratoxin S4]",cellular stability,[1],excellent
same,% remaining,"[2]; microsomes + NADPH, 0 min",100%
same,% remaining,"[2]; microsomes + NADPH, 3 min",39.55 ± 1.06%
same,% remaining,"[2]; microsomes + NADPH, 5 min",32.20 ± 16.12%
same,% remaining,"[2]; microsomes + NADPH, 15 min",10.07 ± 1.46%
same,% remaining,"[2]; microsomes + NADPH, 30 min",9.58 ± 1.03%
same,% remaining,"[2]; microsomes + NADPH, 60 min",10.00 ± 0.71%
same,% remaining,"[2]; microsomes + NADPH, 120 min",6.02 ± 2.11%
same,% remaining,"[2]; microsomes only, 0 min",100%
same,% remaining,"[2]; microsomes only, 3 min",87.05 ± 1.63%
same,% remaining,"[2]; microsomes only, 5 min",70.80 ± 23.48%
same,% remaining,"[2]; microsomes only, 15 min",87.20 ± 2.83%
same,% remaining,"[2]; microsomes only, 30 min",73.85 ± 15.49%
same,% remaining,"[2]; microsomes only, 60 min",87.10 ± 1.41%
same,% remaining,"[2]; microsomes only, 120 min",55.25 ± 12.09%
same,IC50,[3],1.43 nM
same,in vivo activity (previous study),[4],extremely potent and active in vivo
same,plasma stability,[5],excellent
same,IC50,[6],0.32 nM
